Data reported in paper PMC5431875, “In situ click chemistry generation of cyclooxygenase-2 inhibitors” (Nature Communications, 2017).

Tests used:
COX-2 in HCA-7 cells = molecular target: T1, COX-2 in HCA-7 cells (Homo sapiens, UniProt P35354); experiment: Cellular COX-2 inhibitory activity (PGE2 ELISA) in HCA-7 cells; type: cell-based; details: mean of three determinations, read-out: Cell COX-2 IC50
T1 construct: endogenous in cells; host or cells: HCA-7
T1 sequence (P35354 18-604): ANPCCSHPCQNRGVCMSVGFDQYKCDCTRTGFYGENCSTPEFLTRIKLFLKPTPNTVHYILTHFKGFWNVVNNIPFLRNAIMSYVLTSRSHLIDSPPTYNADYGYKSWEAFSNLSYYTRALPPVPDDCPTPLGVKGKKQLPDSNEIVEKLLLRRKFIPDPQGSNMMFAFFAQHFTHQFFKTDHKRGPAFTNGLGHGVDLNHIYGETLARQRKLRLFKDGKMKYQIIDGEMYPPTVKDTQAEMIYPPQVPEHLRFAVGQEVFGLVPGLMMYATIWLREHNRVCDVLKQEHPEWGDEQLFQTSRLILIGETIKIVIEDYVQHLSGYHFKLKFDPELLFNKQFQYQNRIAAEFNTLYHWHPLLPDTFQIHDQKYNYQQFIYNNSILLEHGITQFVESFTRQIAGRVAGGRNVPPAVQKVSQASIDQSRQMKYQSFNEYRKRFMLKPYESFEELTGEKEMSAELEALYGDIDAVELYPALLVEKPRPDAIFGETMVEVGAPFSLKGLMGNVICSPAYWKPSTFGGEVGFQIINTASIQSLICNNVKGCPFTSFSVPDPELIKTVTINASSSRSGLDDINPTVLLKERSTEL
Experimental: Based on the in vitro COX-2 inhibitory data, seventeen compounds (Table 2) were selected and further evaluated for their cellular COX-2 inhibitory activity in COX-2 expressing colorectal cancer cell line HCA-7. […]
HCA-7 cells (colorectal cancer cell line, COX-2 expression is confirmed with immunoblotting). The HCA-7 cells were cultured in T75 flasks using DMEM/F12 (1:1) medium supplemented with 10% (v/v) fetal bovine […]
were washed three times for 5 min with 1 ml PBS. Cells were negatively tested for mycoplasma contamination either by the vendor or in house. […]
vehicle (solvent) at concentration range of 10−9 M to 10−3 M. After 30 min incubation the reaction was stopped on ice and supernatants were taken and COX-2 mediated production of PGE2 was immediately determined […]
concentration is quantified by following manufacturer assay procedure. All experiments were done three times and ±s.e.m. were calculated.
The PRISM5 software was used to calculate IC50 values.

Stability in human serum = type: in vitro ADME; details: 37 °C, up to 30 h
Experimental: Stock solutions of compounds 5, 14, 18 and 21 (10 mM) were prepared in DMSO for molecular biology. A Solution of each compound (10 mM) was added to freshly thaw human serum (from human male AB plasma, USA origin, sterile-filtered, Sigma– Aldrich) at 37 °C; the final concentration of the compound was 100 µM. The resulting solution was incubated at 37 °C and at various time intervals (0 to 30 h) 200 µL reaction mixture samples was taken and added to 200 µL of acetonitrile containing 0.1% trifluoroacetic acid in order to deproteinize the proteins. Into each sample mixture, 10 μL of an internal standard solution (2 mM solution in methanol) was added. Sample mixture was sonicated, vortexed and then centrifuged for 15 min. at 2150 × g. The clear supernatant was transferred into the fresh tube for LCMS analysis, with a similar method described for the in situ click LC-MS studies. […]

Stability in rat serum = type: in vitro ADME; details: 37 °C, up to 30 h
recombinant human COX-2 = molecular target: T2, recombinant human COX-2 (Homo sapiens, UniProt P35354); experiment: COX inhibitor assay (Cayman 700100), COX-2; details: for COX-2 SI (selectivity index): (COX-1 IC50)/(COX-2 IC50)
T2 sequence (P35354 18-604): T1 sequence (P35354 18-604)
Experimental: (§1) Each compound was assayed in concentration range of 10^−9 M to 10^−3 M, in triplicate. PRISM5 software was used to calculate IC50 values.

ovine COX-1 = molecular target: T3, ovine COX-1 (Ovis aries, UniProt P05979); experiment: COX inhibitor assay (Cayman 700100), COX-1
T3 sequence (P05979 25-600): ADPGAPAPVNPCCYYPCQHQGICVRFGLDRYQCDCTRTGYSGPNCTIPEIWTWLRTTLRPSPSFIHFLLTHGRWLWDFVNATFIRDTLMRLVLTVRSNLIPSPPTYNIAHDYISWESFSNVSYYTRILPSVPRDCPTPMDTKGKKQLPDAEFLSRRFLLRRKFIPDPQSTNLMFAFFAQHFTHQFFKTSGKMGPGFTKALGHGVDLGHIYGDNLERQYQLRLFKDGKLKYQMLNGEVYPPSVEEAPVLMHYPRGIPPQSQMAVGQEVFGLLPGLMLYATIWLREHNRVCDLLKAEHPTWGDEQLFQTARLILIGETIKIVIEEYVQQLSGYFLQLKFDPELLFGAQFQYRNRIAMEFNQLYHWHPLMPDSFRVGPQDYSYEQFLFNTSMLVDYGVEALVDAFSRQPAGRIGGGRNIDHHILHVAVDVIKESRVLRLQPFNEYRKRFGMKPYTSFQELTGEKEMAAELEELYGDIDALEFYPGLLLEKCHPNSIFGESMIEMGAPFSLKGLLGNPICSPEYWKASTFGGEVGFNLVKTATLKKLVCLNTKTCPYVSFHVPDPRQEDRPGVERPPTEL
Experimental: as §1

pure human COX-2 protein = molecular target: T4, pure human COX-2 protein (Homo sapiens, UniProt P35354); experiment: Isothermal titration calorimetry; type: binding; details: ITC
T4 sequence (P35354 18-604): T1 sequence (P35354 18-604)
Experimental: The thermodynamics of the precursor 5-azido-pyrazole (14) binding with pure human COX-2 protein studied with a high sensitivity ITC instrument (VP-ITC, MicroCal). All titrations were performed by following VP-ITC general procedure described in manual. Protein (20 µM) and ligand (200 µM) solution were prepared in PBS buffer, pH 7.4. Prior to each ITC run, all solutions were filtered using membrane filters (pore size 0.45 μm) and thoroughly stirred and degassed using Thermovac accessory for 20 min to remove any air bubbles at 25 °C. In a typical experiment, aliquots (6 µl) of ligand solution (prepared at 10 times the COX-2 protein concentration) were injected with a computer-controlled stirrer-syringe into a reaction cell containing COX-2 protein. Titrations were carried out with a stirring speed of 400 rpm and 240 s intervals between injections. All experiments were conducted at 25 °C. Control experiments, including titration of the ligand into buffer alone or COX-2 protein into buffer alone, were carried to determine the heat due to dilution and subtracting during the original experiment. Calorimetric data analysis was performed with ORIGIN software provided by MicroCal. All results, including the binding constant (K a), stoichiometry of binding (N), and thermodynamics of binding (ΔH and TΔS) were determined by fitting the experimental binding isotherms.

IC50 (COX-2 in HCA-7 cells) [µM] | Stability in human serum (Stability in human serum) | Stability in rat serum (Stability in rat serum) | IC50 (recombinant human COX-2) [µM] | COX-2 SI (selectivity index) (recombinant human COX-2) | IC50 (ovine COX-1) [µM] | Enthalpy change, ΔH (pure human COX-2 protein; 298.15 K) [kcal/mol] | Entropy change, TΔS (pure human COX-2 protein; 298.15 K) [kcal/mol] | Free energy change, ΔG (pure human COX-2 protein; 298.15 K) [kcal/mol] | Binding stoichiometry, N (pure human COX-2 protein; PBS pH 7.4, 25 °C) | melting point [°C] | SMILES
> 1 | no significant degradation | no significant degradation | 18.1 | >5.5 | > 100 |  |  |  |  |  | [N-]=[N+]=Nc1cc(-c2ccccc2)nn1-c1ccccc1 [Compound 5, 5-azido-1,3-diphenyl-1H-pyrazole]
10 | no significant degradation | no significant degradation | 4.4 | >22.7 | > 100 | -8.248 | 0.404 | -8.652 | 1.02 ± 0.0259 | 131 to 133 | Cc1cc(N=[N+]=[N-])n(-c2ccc(S(C)(=O)=O)cc2)n1 [Compound 14, 5-azido-1-(4-methanesulfonyl-phenyl)-3-methyl-1H-pyrazole]
 | no significant degradation | no significant degradation |  |  |  |  |  |  |  |  | CS(=O)(=O)c1ccc(-n2nc(-c3ccccc3)cc2N=[N+]=[N-])cc1 [Compound 27, 5-azido-1-(4-methanesulfonyl-phenyl)-3-phenyl-1H-pyrazole]
 | no significant degradation | no significant degradation |  |  |  |  |  |  |  | 123 to 125 | Cc1cc(N=[N+]=[N-])n(-c2ccccc2)n1 [Compound 31, 5-azido-3-methyl-1-phenyl-1H-pyrazole]
